Laboratory results from patent publication US10821152B2, “Methods, agents and compositions for treatment of inflammatory conditions” (Betanien Hospital, priority 2014, dated 2020).
Non-standard residues stand in square brackets, D forms with d. Residues, ends and D or L forms follow the SMILES beside them. d(hArg(Et2)) = CCN=C(NCC)NCCCC[C@@H](N)C(=O)O; hArg(Et2) = CCN=C(NCC)NCCCC[C@H](N)C(=O)O; dPhe(4-Cl) = N[C@H](Cc1ccc(Cl)cc1)C(=O)O; d2Nal = N[C@H](Cc1ccc2ccccc2c1)C(=O)O; d3Pal = N[C@H](Cc1cccnc1)C(=O)O

What was measured:
Format in all cases: in vivo, human
[1] = tested on: patient with seropositive rheumatoid arthritis; assay: Treatment of RA using Ganirelix
Experimental: • person with seropositive rheumatoid arthritis with disease duration of 10 years. • Fulfilled ACR 2010 classification criteria for rheumatoid arthritis. Experimental Treatment • Had tried almost all available rheumatoid arthritis therapies available previously without effect. • Offered experimental GnRH antagonist therapy, Ganirelix 0.75 mg sc daily (0.25 mg sc three times a day) Assessment of Response at 4 Months • Disease activity score (DAS) reduction from 5.5 to 2.2 (remission). • A DAS reduction of 0.6 units is defined as a clinical response to treatment (1). • Their ESR decreased from 28 mm to 19 mm, with a normalization of their CRP from 23 mg/L to 5 mg/L. This is supported by the decrease in their anti-cyclic citrullinated peptide (CCP) antibodies from 27 u/mL. to 14 u/mL.

[2] = tested on: patient with ulcerative colitis; assay: GnRH antagonist treatment for colitis (Ganirelix)
Experimental: • person with ulcerative colitis for the past 10 years Experimental Treatment • Is offered Ganirelix 2 mg daily for 6months Assessment of Response • By 6 months they experience clinical remission with a partial Mayo score reduction from 3 to 0.

[3] = tested on: patient with tendonitis of the elbow; assay: GnRH antagonist injection around tendon in tendonitis; details: 1.5 mg injected around the affected tendon, 2 week post injection
Experimental: • person diagnosed with tendonitis of the elbow with ultrasound confirming tendonitis. Experimental Treatment • Treated with an injection of GnRH antagonist, Ganirelix 1.5 mg, around the affected tendon. Assessment of Response • Before and 2 week post injection ultrasound images are taken to show a decrease in tendonitis of the elbow.

For CCN=C(NCC)NCCCC[C@H](NC(=O)[C@H](CC(C)C)NC(=O)[C@@H](CCCCNC(=NCC)NCC)NC(=O)[C@H](Cc1ccc(O)cc1)NC(=O)[C@H](CO)NC(=O)[C@@H](Cc1cccnc1)NC(=O)[C@@H](Cc1ccc(Cl)cc1)NC(=O)[C@@H](Cc1ccc2ccccc2c1)NC(C)=O)C(=O)N1CCC[C@H]1C(=O)N[C@H](C)C(N)=O [Ganirelix] (Ac-[d2Nal][dPhe(4-Cl)][d3Pal]SY[d(hArg(Et2))]L[hArg(Et2)]P[dA]-NH2), the CRP ([1]; at 4 months) was 5 mg/L, the ESR ([1]; at 4 months) was 19 mm and the “anti-cyclic citrullinated peptide (CCP) antibodies” value ([1]; at 4 months) was 14 u/mL. For the same compound, the rheumatoid factor level ([1]; at 4 months) was 75 kIU/L, the “Disease activity score (DAS)” value ([1]; at 4 months, 0.75 mg sc daily (remission)) was 2.2 and the CRP ([1]; before Ganirelix) was 23 mg/L. The “Disease activity score (DAS)” value ([1]; before Ganirelix) was 5.5, the ESR ([1]; before Ganirelix) was 28 mm and the “anti-cyclic citrullinated peptide (CCP) antibodies” value ([1]; before Ganirelix) was 27 u/mL. For the same compound, the rheumatoid factor level ([1]; before Ganirelix) was 113 kIU/L, the “partial Mayo score” value ([2]; Ganirelix 2 mg daily, by 6 months (clinical remission)) was 0 and the “partial Mayo score” value ([2]; before Ganirelix) was 3. For the same compound, the “tendonitis of the elbow on ultrasound” value [3] was “decrease”.
